How the values were obtained:
Assay in all cases: relative viability (nuclei count vs DMSO), 5 days (fraction); higher = more cells survive
Obatoclax = compound: COC1=CC(c2cc3ccccc3[nH]2)=N/C1=C\c1[nH]c(C)cc1C [Obatoclax]
Summary of the method: (§1)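 Lung cancer cell lines received five library-drug doses (not always all listed) spaced by √10, pinned on vehicle-anchored 1536-well plates after an overnight stay at 37 °C. Five days later, with no medium change, nuclei were Hoechst-stained, imaged at 4× and counted with MetaXpress. Viability is treated-well nuclei relative to vehicle-well nuclei, as a median across plates. Passing plates had control CV below 25% and at least one doubling.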

[1] = compound: CC1=CC(=NN1)NC2=CC(=NC(=N2)/C=C/C3=CC=CC=C3)N4CCN(CC4)C
Summary of the method: as §1

Bortezomib = compound: CC(C)C[C@H](NC(=O)[C@H](Cc1ccccc1)NC(=O)c1cnccn1)B(O)O [Bortezomib]
Summary of the method: as §1

| Cell Line | relative viability (Obatoclax; 0.01 µM) | relative viability (Obatoclax; 0.03162 µM) | relative viability (Obatoclax; 0.1 µM) | relative viability (Obatoclax; 0.3162 µM) | relative viability (Obatoclax; 1 µM) | relative viability ([1]; 0.08 µM) | relative viability ([1]; 0.253 µM) | relative viability ([1]; 0.8 µM) | relative viability ([1]; 2.53 µM) | relative viability ([1]; 8 µM) | relative viability (Bortezomib; 0.0002 µM) | relative viability (Bortezomib; 0.000632 µM) | relative viability (Bortezomib; 0.002 µM) | relative viability (Bortezomib; 0.002 µM, anchor plate) | relative viability (Bortezomib; 0.006325 µM) | relative viability (Bortezomib; 0.02 µM) |
| --- | --- | --- | --- | --- | --- | --- | --- | --- | --- | --- | --- | --- | --- | --- | --- | --- |
| NCI-H1355 | 1.03 | 0.913 | 0.918 | 0.96 | 0.947 | 0.96 | 0.965 | 0.955 | 0.647 | 0.159 | 0.911 | 0.909 | 1.08 | 1.23 | 0.668 | 0.152 |
| NCI-H1395 | 1 | 0.846 | 0.647 | 0.838 | 0.68 | 0.916 | 1.04 | 0.882 | 0.431 | 0.279 | 0.949 | 0.866 | 0.807 | – | 0.332 | 0.293 |
| NCI-H1437 | 0.942 | 0.93 | 0.951 | 0.932 | 0.816 | 1.02 | 1.06 | 1.03 | 0.757 | 0.346 | 0.928 | 1 | 1 | 0.542 | 0.272 | 0.173 |
| NCI-H1563 | 0.989 | 0.979 | 1.08 | 0.956 | 0.895 | 1.03 | 1.01 | 0.999 | 0.752 | 0.509 | 0.971 | 1 | 0.826 | 0.858 | 0.564 | 0.442 |
| NCI-H1623 | 0.98 | 0.978 | 1.24 | 1.04 | 0.956 | 0.956 | 1.13 | 1.01 | 0.843 | 0.542 | 0.955 | 1.01 | 0.766 | – | 0.325 | 0.273 |
| NCI-H1648 | 1.02 | 0.85 | 1.64 | 0.718 | 0.815 | 0.972 | 1.04 | 0.983 | 0.655 | 0.484 | 0.771 | 0.769 | 0.529 | – | 0.622 | 0.312 |
| NCI-H1650 | 0.938 | 0.981 | 0.879 | 0.646 | 0.34 | 0.86 | 1.05 | 0.972 | 0.185 | 0.101 | 0.751 | 0.805 | 0.2 | 0.206 | 0.161 | 0.167 |
| NCI-H1651 | 0.954 | 0.957 | 1.07 | 0.847 | 0.754 | 1.03 | 0.992 | 0.939 | 0.712 | 0.288 | 0.992 | 0.969 | 0.727 | 0.943 | 0.173 | 0.121 |
| NCI-H1666 | 0.995 | 1.03 | 1.08 | 0.856 | 0.517 | 0.973 | 0.894 | 1.09 | 0.847 | 0.594 | 1.01 | 1.04 | 0.963 | 0.855 | 0.493 | 0.317 |
| NCI-H1703 | 0.955 | 0.846 | 0.858 | 0.72 | 0.542 | 0.825 | 0.912 | 0.575 | 0.19 | 0.135 | 1.15 | 0.757 | 0.356 | 0.338 | 0.132 | 0.119 |
| NCI-H1734 | 1.01 | 0.934 | 0.812 | 0.821 | 0.365 | 0.939 | 0.913 | 0.799 | 0.328 | 0.155 | 0.929 | 1.01 | 0.944 | 0.945 | 0.15 | 0.119 |
| NCI-H1755 | 0.981 | 0.975 | 0.884 | 0.994 | 0.964 | 1.03 | 1.05 | 1.02 | 0.722 | 0.443 | 1.01 | 0.96 | 1.02 | 0.963 | 0.378 | 0.224 |
| NCI-H1792 | 0.985 | 0.795 | – | 0.92 | 0.7 | 0.957 | 0.934 | 0.813 | 0.338 | 0.0683 | 0.754 | 0.838 | 0.904 | 0.956 | 0.602 | 0.277 |
| NCI-H1793 | 0.949 | 0.795 | 0.859 | 0.929 | 0.986 | 0.894 | 0.979 | 0.858 | 0.179 | 0.106 | 0.843 | 0.705 | 0.997 | – | 0.688 | 0.208 |
| NCI-H1915 | 0.973 | 0.949 | 0.898 | 0.999 | 0.941 | 1 | 0.96 | 0.96 | 0.705 | 0.22 | 0.948 | 1 | 1.09 | 0.96 | 0.91 | 0.0999 |
| NCI-H1944 | 1.04 | 0.883 | 1.01 | 1.01 | 1.02 | 0.987 | 0.98 | 0.953 | 0.657 | 0.465 | 0.926 | 0.94 | 0.917 | – | 0.854 | 0.283 |
| NCI-H1975 | 1.02 | 0.865 | – | 0.977 | 0.717 | 0.954 | 0.956 | 0.984 | 0.458 | 0.152 | 0.902 | 0.858 | 0.239 | 0.395 | 0.153 | 0.158 |
| NCI-H1993 | 0.92 | 0.865 | 1.07 | 1.03 | 0.896 | 0.91 | 0.882 | 1.27 | 0.571 | 0.423 | 0.903 | 0.935 | 1.01 | 1.19 | 0.493 | 0.502 |
